From US10030039B2, “Anti-cancer agent and cancer cell killing method” (IHI Corporation, priority 2014, dated 2018)

Test system: cancer cell line (MDA-MB-231) for triple-negative breast cancer
Test: Cancer Cell Killing Effect Assay 5 (XTT assay)
Assay type: cell-based
Conditions: MDA-MB-231, 24 hours, 37° C., 5% CO2; 3.750 and 7.500 μM; FIG. 6
Method: Cancer Cell Line: Cancer Cell Line (MDA-MB-231) (the G0 Phase) for Triple-Negative Breast Cancer XTT cell proliferation assay kit (manufactured by ATCC) The XTT labeled liquid mixture was adjusted by mixing the XTT reagent (5 ml) and an activation solution (0.1 ml). The cell proliferation assay was conducted in accordance with ATCC's experiment protocol. […] The cancer cell line for the triple-negative breast cancer was cultured by the same method as that of Example 4. RPMI-1640, 10% inactivated bovine serum (GIBCO, USA), and 100 units/ml of penicillin-streptomycin were added to each well (100 μl) of the microplate (for cell proliferation and with 96 holes and a flat bottom) and 3×10^5 cultured cells were seeded. […] The XTT assay was performed by the same method as that of Example 4. The cell survival rate was calculated on the basis of the results of the absorbance measurement and by the method explained in [Cancer Cell Killing Effect Assay 3].

Compound: CC(=O)O[C@H]1C(=O)[C@@]2(C)[C@H]([C@H](OC(=O)c3ccccc3)[C@]3(O)C[C@H](OC(=O)[C@H](O)[C@@H](NC(=O)c4ccccc4)c4ccccc4)C(C)=C1C3(C)C)[C@]1(OC(C)=O)CO[C@@H]1C[C@@H]2O [paclitaxel]
- concentration dependence of reduction of cell survival rate / cell killing effect: concentration-dependent up to a specified concentration
